In brackets after ≈: the same amount, converted by molar mass.
Columns and labels:
[1] = test system: Mycobacterium tuberculosis; experiment: Antitubercular activity against Mycobacterium tuberculosis H37Rv ATCC 27294 assessed as bacterial growth inhibition incubated for 7 days in 7H9 medium by alamar blue staining based microplate fluorometric analysis; format: functional; conditions: H37Rv ATCC 27294, 168 h, time 7 day
[2] = Cytotoxicity against African green monkey Vero cells assessed as reduction in cell viability incubated for 72 hrs by MTT assay; format: toxicity, cell-based; conditions: chlorocebus sabaeus
[3] = Water solubility of the compound in 80% acetronitrile/20% water meausred after 24 hrs by HPLC-UV analysis; format: physicochemical; conditions: 80% acetonitrile/20% water
[4] = Half life in female ICR mouse at 25 mg/kg, po administered as single dose measured upto 24 hrs by HPLC analysis; format: ADME, organism-based; conditions: in vivo
[5] = Tmax in female ICR mouse at 25 mg/kg, po administered as single dose measured upto 24 hrs by HPLC analysis; format: ADME, organism-based; conditions: in vivo
[6] = Cmax in female ICR mouse at 25 mg/kg, po administered as single dose measured upto 24 hrs by HPLC analysis; format: ADME, organism-based; conditions: in vivo
[7] = AUC (0 to infinity) in female ICR mouse at 25 mg/kg, po administered as single dose measured upto 24 hrs by HPLC analysis; format: ADME, organism-based; conditions: in vivo
hERG (KCNH2) = hERG (KCNH2) (Homo sapiens, UniProt Q12809); experiment: Inhibition of human ERG expressed in HEK293 cells at 10 uM by electrophysiological method relative to control; format: toxicity, cell-based; conditions: HEK293 cells expressing hERG
Sequence of hERG (KCNH2) (Q12809 whole entry): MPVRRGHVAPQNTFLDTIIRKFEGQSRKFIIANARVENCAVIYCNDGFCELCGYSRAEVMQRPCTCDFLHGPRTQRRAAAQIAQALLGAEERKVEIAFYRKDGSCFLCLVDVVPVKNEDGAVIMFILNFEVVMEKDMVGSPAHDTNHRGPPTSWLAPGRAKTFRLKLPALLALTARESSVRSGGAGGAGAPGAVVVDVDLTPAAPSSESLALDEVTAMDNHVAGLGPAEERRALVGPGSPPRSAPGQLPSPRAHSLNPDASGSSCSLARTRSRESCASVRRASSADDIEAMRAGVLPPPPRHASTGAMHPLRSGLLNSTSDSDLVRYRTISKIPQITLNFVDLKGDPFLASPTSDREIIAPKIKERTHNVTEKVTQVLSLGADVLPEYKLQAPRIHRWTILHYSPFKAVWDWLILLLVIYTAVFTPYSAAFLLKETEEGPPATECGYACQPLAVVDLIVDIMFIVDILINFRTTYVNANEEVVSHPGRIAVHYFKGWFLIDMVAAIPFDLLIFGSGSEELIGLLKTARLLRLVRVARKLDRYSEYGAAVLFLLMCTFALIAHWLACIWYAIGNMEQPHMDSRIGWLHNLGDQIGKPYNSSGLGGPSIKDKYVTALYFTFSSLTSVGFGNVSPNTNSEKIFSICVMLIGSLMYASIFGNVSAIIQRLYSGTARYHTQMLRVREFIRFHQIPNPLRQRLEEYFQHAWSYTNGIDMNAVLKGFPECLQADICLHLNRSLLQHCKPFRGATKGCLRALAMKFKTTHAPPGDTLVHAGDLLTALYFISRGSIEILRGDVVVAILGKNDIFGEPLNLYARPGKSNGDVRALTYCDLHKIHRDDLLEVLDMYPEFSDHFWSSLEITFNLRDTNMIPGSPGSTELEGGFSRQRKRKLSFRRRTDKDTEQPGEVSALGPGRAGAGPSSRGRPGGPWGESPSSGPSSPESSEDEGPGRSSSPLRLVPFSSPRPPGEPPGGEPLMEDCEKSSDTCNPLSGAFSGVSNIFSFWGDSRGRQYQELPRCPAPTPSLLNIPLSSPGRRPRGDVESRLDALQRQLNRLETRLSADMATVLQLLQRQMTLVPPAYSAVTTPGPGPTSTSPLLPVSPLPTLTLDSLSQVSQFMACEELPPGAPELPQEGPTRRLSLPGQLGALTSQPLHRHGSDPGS

[8] = Acute toxicity in female ICR mouse assessed as animal death at 1000 mg/kg, po administered as single dose measured for 7 days; format: organism-based; conditions: in vivo, 168 h, time 7 day
[9] = Acute toxicity in female ICR mouse assessed as change in body weight at 1000 mg/kg, po administered as single dose measured for 7 days; format: organism-based; conditions: in vivo, 168 h, time 7 day
[10] = Acute toxicity in female ICR mouse assessed as lethal dose administered as single oral dose measured for 7 days; conditions: in vivo, time 7 day
[11] = Water solubility of the compound in 60% acetronitrile/40% water meausred after 24 hrs by HPLC-UV analysis; format: physicochemical; conditions: 60% acetonitrile/40% water

SMILES	MIC [1] [µM]	CC50 at 72 h [2] [µM]	solubility at 24 h [3] [µg/mL]	other results
CC(C)(C)OC(=O)NCCON=C1CCC(CN2CCN(c3nc(=O)c4cc(C(F)(F)F)cc([N+](=O)[O-])c4s3)CC2)CC1 (configuration not stated)	0.033 (≈ 0.0207 µg/mL)	> 102	2.4 (≈ 3.82 µM)	
COC(=O)CNC1CCC(CN2CCN(c3nc(=O)c4cc(C(F)(F)F)cc([N+](=O)[O-])c4s3)CC2)CC1 (configuration not stated)	1.05 (≈ 0.573 µg/mL)			
CC(C)(C)OC(=O)CNC(=O)CCON=C1CCC(CN2CCN(c3nc(=O)c4cc(C(F)(F)F)cc([N+](=O)[O-])c4s3)CC2)CC1 (configuration not stated)	< 0.026	> 95		
NNC(=O)c1ccncc1 [ISONIAZID]	0.342 (≈ 0.0469 µg/mL)			
O=C(O)CCON=C1CCC(CN2CCN(c3nc(=O)c4cc(C(F)(F)F)cc([N+](=O)[O-])c4s3)CC2)CC1 (configuration not stated)	0.214 (≈ 0.119 µg/mL)	> 115		
O=C(O)CON=C1CCC(CN2CCN(c3nc(=O)c4cc(C(F)(F)F)cc([N+](=O)[O-])c4s3)CC2)CC1 (configuration not stated)	< 0.029	> 118	1200 (≈ 2210 µM)	half-life [4]: 3.06 h; Tmax [5]: 0.33 h; Cmax [6]: 770 ng/mL; AUC(0-inf) [7]: 1410 ng·h/mL; inhibition at 10 µM (hERG (KCNH2)): 5.8%; Activity [8]: Non-Toxic; Activity [9]: Toxic; LD50 at 168 h [10]: > 1000 mg/kg
CC(C)(ON=C1CCC(CN2CCN(c3nc(=O)c4cc(C(F)(F)F)cc([N+](=O)[O-])c4s3)CC2)CC1)C(=O)O (configuration not stated)	0.114 (≈ 0.0652 µg/mL)	> 112	490 (≈ 857 µM)	
CC(C)(C)OC(=O)CNC(=O)CON=C1CCC(CN2CCN(c3nc(=O)c4cc(C(F)(F)F)cc([N+](=O)[O-])c4s3)CC2)CC1 (configuration not stated)	0.044 (≈ 0.0289 µg/mL)	> 98		
CON=C1CCC(CN2CCN(c3nc(=O)c4cc(C(F)(F)F)cc([N+](=O)[O-])c4s3)CC2)CC1 (configuration not stated)	< 0.035		1.6 (≈ 3.2 µM)	half-life [4]: 5.24 h; Tmax [5]: 0.69 h; Cmax [6]: 8370 ng/mL; AUC(0-inf) [7]: 16900 ng·h/mL
C[C@H](NC(=O)C(C)(C)ON=C1CCC(CN2CCN(c3nc(=O)c4cc(C(F)(F)F)cc([N+](=O)[O-])c4s3)CC2)CC1)C(=O)O (some centres not stated)	1.33 (≈ 0.853 µg/mL)			
CC(C)(C)OC(=O)CNC(=O)C(C)(C)ON=C1CCC(CN2CCN(c3nc(=O)c4cc(C(F)(F)F)cc([N+](=O)[O-])c4s3)CC2)CC1 (configuration not stated)	0.086 (≈ 0.0589 µg/mL)	> 94	4 (≈ 5.84 µM)	
O=C(O)CNC(=O)CON=C1CCC(CN2CCN(c3nc(=O)c4cc(C(F)(F)F)cc([N+](=O)[O-])c4s3)CC2)CC1 (configuration not stated)	1.54 (≈ 0.925 µg/mL)			
CC(C)(C)OC(=O)CCON=C1CCC(CN2CCN(c3nc(=O)c4cc(C(F)(F)F)cc([N+](=O)[O-])c4s3)CC2)CC1 (configuration not stated)	< 0.026	> 104		
C[C@H](NC(=O)C(C)(C)ON=C1CCC(CN2CCN(c3nc(=O)c4cc(C(F)(F)F)cc([N+](=O)[O-])c4s3)CC2)CC1)C(=O)OC(C)(C)C (some centres not stated)	< 0.023	> 92		
C[C@H](NC(=O)CON=C1CCC(CN2CCN(c3nc(=O)c4cc(C(F)(F)F)cc([N+](=O)[O-])c4s3)CC2)CC1)C(=O)O (some centres not stated)	2.9 (≈ 1.79 µg/mL)			
O=C(O)CNC(=O)CCON=C1CCC(CN2CCN(c3nc(=O)c4cc(C(F)(F)F)cc([N+](=O)[O-])c4s3)CC2)CC1 (configuration not stated)	0.338 (≈ 0.208 µg/mL)	> 104		
NCCON=C1CCC(CN2CCN(c3nc(=O)c4cc(C(F)(F)F)cc([N+](=O)[O-])c4s3)CC2)CC1 (configuration not stated)	0.091 (≈ 0.0481 µg/mL)			solubility at 24 h [11]: > 2000 µg/mL; half-life [4]: 3.6 h; Tmax [5]: 1 h; Cmax [6]: 798 ng/mL; AUC(0-inf) [7]: 3840 ng·h/mL; inhibition at 10 µM (hERG (KCNH2)): 5.66%; Activity [8]: Non-Toxic; Activity [9]: Toxic; LD50 at 168 h [10]: > 1000 mg/kg
CO[C@H]1/C=C/O[C@@]2(C)Oc3c(C)c(O)c4c(O)c(c(/C=N/N5CCN(C)CC5)c(O)c4c3C2=O)NC(=O)/C(C)=C\C=C\[C@H](C)[C@H](O)[C@@H](C)[C@@H](O)[C@@H](C)[C@H](OC(C)=O)[C@@H]1C [RIFAMPIN]	0.04 (≈ 0.0329 µg/mL)			
CC(C)(ON=C1CCC(CN2CCN(c3nc(=O)c4cc(C(F)(F)F)cc([N+](=O)[O-])c4s3)CC2)CC1)C(=O)NCC(=O)O (configuration not stated)	0.653 (≈ 0.41 µg/mL)		530 (≈ 843 µM)	
C[C@H](NC(=O)CON=C1CCC(CN2CCN(c3nc(=O)c4cc(C(F)(F)F)cc([N+](=O)[O-])c4s3)CC2)CC1)C(=O)OC(C)(C)C (some centres not stated)	0.181 (≈ 0.121 µg/mL)	> 95		
O=C(O)CNC1CCC(CN2CCN(c3nc(=O)c4cc(C(F)(F)F)cc([N+](=O)[O-])c4s3)CC2)CC1 (configuration not stated)	> 18.9	> 121		
O=c1nc(N2CCN(CC3CCCCC3)CC2)sc2c([N+](=O)[O-])cc(C(F)(F)F)cc12 [MACOZINONE]	< 0.035	> 140	1.1 (≈ 2.41 µM)	half-life [4]: 6.43 h; Tmax [5]: 2 h; Cmax [6]: 295 ng/mL; AUC(0-inf) [7]: 2310 ng·h/mL

Source: ChEMBL document CHEMBL6127042, “Design, synthesis and antimycobacterial activity of novel benzothiazinones with improved water solubility” (Eur J Med Chem, 2024)
